Assay results from US8507472B2 (priority 2010, dated 2013).
Read-outs that look alike come from different tables or passages of the source.

Columns and labels:
Fusarium graminearum [1] = format: in vivo
Botrytis cinerea = assay: Botrytis test (bean)/protective; format: in vivo; conditions: 100 ppm active compound, protective, evaluation 2 days after inoculation
Procedure: (§1) Solvents: 24.5 parts by weight of acetone
(§2) • 24.5 parts by weight of dimethylacetamide Emulsifier: 1 part by weight of alkylaryl polyglycol ether
(§3) To produce a suitable preparation of active compound, 1 part by weight of active compound is mixed with the stated amounts of solvents and emulsifier, and the concentrate is diluted with water to the desired concentration.
To test for protective activity, young plants are sprayed with the active compound preparation at the stated application rate. After the spray coating has dried on, 2 small pieces of agar colonized by Botrytis cinerea are placed onto each leaf. The inoculated plants are placed in a dark chamber at about 20° C. and 100% relative atmospheric humidity.
2 days after the inoculation, the size of the infected areas on the leaves is evaluated. 0% means an efficacy which corresponds to that of the control, whereas an efficacy of 100% means that no infection is observed.

Sphaerotheca fuliginea = assay: Sphaerotheca test (cucumber)/protective; format: in vivo
Procedure, shortened: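 Infection was rated 7 days after spore inoculation as % efficacy (0% = control level, 100% = no disease). Inoculation followed 1 day after preventive spray of young cucumbers with compound formulated in N,N-dimethylformamide plus emulsifier and diluted with water; plants were held at 23 °C and 70% relative humidity.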

Phytophthora infestans = format: in vivo
Alternaria solani = assay: Alternaria test (tomato)/protective; format: in vivo
Procedure, shortened: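 Treatment was protective: spray application at the stated rate came one day before spore inoculation. Incubation was 24 h at 22 °C and 100% humidity, then 20 °C and 96% humidity. Infection was rated at day 7 as % efficacy against the control, with 100% meaning no disease.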

[2] = test system: Fusarium nivale (var. majus); assay: Fusarium nivale (var. majus) test (wheat)/protective; format: in vivo; conditions: 1000 ppm active compound, protective, evaluation 5 days after inoculation
Procedure: (§4) Solvent: 49 parts by weight of N,N-dimethylacetamide
(§5) Emulsifier: 1 part by weight of alkylaryl polyglycol ether
(§6) To produce a suitable preparation of active compound, 1 part by weight of active compound is mixed with the stated amounts of solvent and emulsifier, and the concentrate is diluted with water to the desired concentration.
(§7) To test for protective activity, young plants are sprayed with the active compound preparation at the stated application rate.
After the spray coating has dried on, the plants are sprayed with spores of a spore suspension of Fusarium nivale (var. majus).
The plants are placed in a greenhouse chamber under a translucent incubation hood at 10° C. and 100% relative atmospheric humidity.
Evaluation is carried out 5 days after the inoculation. 0% means an efficacy which corresponds to that of the control, whereas an efficacy of 100% means that no infection is observed.

Uromyces appendiculatus = assay: Uromyces test (bean)/protective; format: in vivo
Procedure: as §1, §2, §3
To test for protective activity, young plants are sprayed with the active compound preparation at the stated application rate. After the spray coating has dried on, the plants are inoculated with an aqueous spore suspension of the bean rust pathogen Uromyces appendiculatus and then remain in an incubation cabin at about 20° C. and 100% relative atmospheric humidity for 1 day.
The plants are then placed in a greenhouse at about 21° C. and a relative atmospheric humidity of about 90%.
Evaluation is carried out 10 days after the inoculation. 0% means an efficacy which corresponds to that of the control, whereas an efficacy of 100% means that no infection is observed.

Fusarium graminearum [3] = assay: microbe, parasite or virus in culture; format: cell-based
Septoria tritici = Septoria tritici test (wheat)/protective; format: in vivo
Procedure: as §4, §5
To produce a suitable preparation of active compound, 1 part by weight of active compound is mixed with the stated amount of solvent and emulsifier, and the concentrate is diluted with water to the desired concentration.
To test for protective activity, young plants are sprayed with the active compound preparation at the stated application rate. After the spray coating has dried on, the plants are sprayed with a spore suspension of Septoria tritici. The plants remain in an incubation cabin at 20° C. and 100% relative atmospheric humidity for 48 hours. The plants are then placed under a translucent hood at 15° C. and 100% relative atmospheric humidity for a further 60 hours.
The plants are placed in a greenhouse at a temperature of about 15° C. and a relative atmospheric humidity of 80%.
Evaluation is carried out 21 days after the inoculation. 0% means an efficacy which corresponds to that of the control, whereas an efficacy of 100% means that no infection is observed.

DON/AcDON production = assay: microbe, parasite or virus in culture; format: cell-based, Fusarium graminearum; conditions: 7 days at 28° C.
Leptosphaeria nodorum = Leptosphaeria nodorum test (wheat)/protective; format: in vivo
Procedure, shortened: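 Young wheat plants were sprayed protectively, then inoculated 1 day later with L. nodorum spores and held 48 h at 100% humidity and 22° C. They were then kept in a greenhouse at 90% humidity and 22° C. Efficacy was scored 7-9 days post-inoculation, where 0% equals control and 100% means no infection.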

Puccinia triticina = Puccinia triticina test (wheat)/protective; format: in vivo
Procedure: Solvent: 49 parts by weight of […]
as §5, §6, §7
After the spray coating has dried on, the plants are sprayed with spores of a spore suspension of Puccinia triticina. The plants remain in an incubation cabin at 20° C. and 100% relative atmospheric humidity for 48 hours.
The plants are placed in greenhouse at a temperature of about 20° C. and a relative atmospheric humidity of about 80%.
Evaluation is carried out 8 days after the inoculation. 0% means an efficacy which corresponds to that of the control, whereas an efficacy of 100% means that no infection is observed.

Pyrenophora teres = Pyrenophora teres test (barley)/protective; format: in vivo
Procedure, shortened: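 Efficacy, read 7-9 days after spore inoculation, runs from 0% (equal to untreated control) to 100% (no infection). Barley sprayed with water-diluted DMF/emulsifier formulation was inoculated one day later, incubated 48 h at 22° C. and 100% rel. humidity, then held at 20° C. and 80% humidity.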

Venturia inaequalis = assay: Venturia test (apple)/protective; format: in vivo; conditions: 100 ppm active compound, protective, evaluation 10 days after inoculation
Procedure, shortened: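 Efficacy read 10 days after inoculation, where 100% is no infection and 0% matches untreated control. Plants kept 1 day at ~20° C and 100% relative humidity after conidia inoculation, then ~21° C and ~90% humidity; inoculation followed drying of a protective spray of compound formulated in acetone/dimethylacetamide plus emulsifier and diluted with water.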

[4] = log P determination by HPLC retention times (alkan-2-one calibration)
[5] = 500 ppm active compound, tomato, protective, evaluation 7 days after inoculation

SMILES | efficacy in % (Fusarium graminearum [1]; in vivo) [%] | efficacy in % (Botrytis cinerea) [%] | efficacy in % (Sphaerotheca fuliginea; in vivo) [%] | efficacy in % (Phytophthora infestans; in vivo) [%] | efficacy in % (Alternaria solani; in vivo) [%] | efficacy in % [2] [%] | efficacy in % (Uromyces appendiculatus; in vivo) [%] | % inhibition of the fungal growth of Fusarium graminearum at 50 μM (Fusarium graminearum [3]) [%] | efficacy in % (Septoria tritici; in vivo) [%] | % inhibition of DON/AcDON at 50 μM (DON/AcDON production) [%] | efficacy in % (Leptosphaeria nodorum; in vivo) [%] | efficacy in % (Puccinia triticina; in vivo) [%] | efficacy in % (Pyrenophora teres; in vivo) [%] | efficacy in % (Venturia inaequalis) [%] | further results
COCC(=O)Nc1cc(-c2c(-c3ccccc3)nn3c2CCCC3)ccn1 [Example 23] | 88 | 100 | 89 | 80 | 95 | 86 | 95 | 97 | 86 | 100 | 90 | 75 | 95 | 98 | 
CC(C)C(=O)Nc1cc(-c2c(-c3ccsc3)nn3c2CCCC3)ccn1 [Example 63] | 83 | 94 | 93 | 95 | 100 | 83 | 75 | 100 | 100 | 100 | 94 | 86 | 95 | 99 | 
COCC(=O)Nc1cc(-c2c(-c3ccc(F)cc3)nn3c2CCCC3)ccn1 [Example 22] | 100 | 89 | 90 | 90 | 95 | 86 | 94 | 97 | 86 | 100 | 80 | 75 | 95 | 76 | 
COC(=O)Nc1cc(-c2c(-c3ccc(F)cc3)nn3c2CCCC3)ccn1 [Example 26, Methyl{4-[2-(4-fluorophenyl)-4,5,6,7-tetrahydropyrazolo[1,5-a]pyridin-3-yl]-pyridin-2-yl}carbamate] |  | 93 |  |  |  | 86 |  |  |  |  |  |  |  | 93 | efficacy in % (Fusarium graminearum [1]; 1000 ppm active compound, barley, protective, evaluation 5 days after inoculation): 88%; efficacy in % (Sphaerotheca fuliginea; 500 ppm active compound, cucumber, protective, evaluation 7 days after inoculation): 98%; efficacy in % (Phytophthora infestans; [5]): 95%; efficacy in % (Alternaria solani; [5]): 100%; efficacy in % (Uromyces appendiculatus; 100 ppm active compound, bean, protective, evaluation 10 days after inoculation): 94%; inhibition at 50 µM (Fusarium graminearum [3]; Fusarium graminearum, 72 h, read-out: % inhibition of the fungal growth of Fusarium graminearum at 50 μM): 57%; efficacy in % (Septoria tritici; 1000 ppm active compound, wheat, protective, evaluation 21 days after inoculation): 86%; chromatographic logP ([4]; log P(HCOOH), HCOOH, preparation examples in the text): 2.11; chromatographic logP ([4]; log P, values marked [a] in Table 1): 2.11; chromatographic logP ([4]; log P, values marked [b] in Table 1): 2.56; inhibition at 50 µM (DON/AcDON production; Fusarium graminearum, 168 h): 98%; efficacy in % (Leptosphaeria nodorum; 500 ppm active compound, wheat, protective, evaluation 7-9 days after inoculation): 80%; efficacy in % (Puccinia triticina; 1000 ppm active compound, wheat, protective, evaluation 8 days after inoculation): 100%; efficacy in % (Pyrenophora teres; 500 ppm active compound, barley, protective, evaluation 7-9 days after inoculation): 95%
CCC(=O)Nc1cc(-c2c(-c3ccccc3)nn3c2CCCC3)ccn1 [Example 8] | 88 | 99 | 99 | 95 | 100 | 100 | 100 | 100 | 100 | 99 | 95 | 100 | 100 | 96 | 
CC(=O)Nc1cc(-c2c(-c3ccc(F)cc3)nn3c2CCCC3)ccn1 [Example 15] | 100 | 82 | 98 | 95 | 100 | 100 | 94 | 88 | 100 | 99 | 95 | 94 | 100 | 94 | 
O=C(Nc1cc(-c2c(-c3ccsc3)nn3c2CCCC3)ccn1)C1CC1 [Example 65] | 83 | 97 | 100 | 90 | 100 | 100 | 95 | 100 | 90 | 100 | 94 | 86 | 95 | 96 | 
O=C(Nc1cc(-c2c(-c3ccc(F)cc3)nn3c2CCCC3)ccn1)c1ccccc1 [Example 32] | 86 | 98 |  | 70 | 78 | 86 | 96 | 94 | 100 | 99 | 90 | 89 | 78 | 90 | 
C[C@H](O)C(=O)Nc1cc(-c2c(-c3ccc(F)cc3)nn3c2CCCC3)ccn1 [Example 24] | 100 | 76 | 94 | 90 | 95 | 100 | 91 | 74 | 100 | 99 | 90 | 100 | 95 | 83 | 
